In data set [1] the test system is H358 lung carcinoma cell line. Put plainly: Heat inducible, tetracycline feed-forward amplification of p53 expression (p53 immunostaining). The data set is classed as cell-based. Particulars: 0.1 μg/ml added 6 hours after heating (45° C., 20 min); reached in 10 hours; cells cotransfected with ptet-splice p53 wt and HSP-tetp-TET-ON. Here is the method:
Six hours after heat shock, transfected cells were treated with different doses of doxycycline. At various time points after the addition of doxycycline, the cells were stained with a p53 antibody. For each point, the digital images of fifty immunostained cells were captured using a Nikon microscope. […] The plasmid “HSP-tetp-TET-ON” was constructed by replacing the CMV promoter in ptet-on (Clontech) with 300 bp of the human heat shock protein promoter and the tetp promoter. H358, a non-small cell lung carcinoma cell line with a homozygous deletion of p53, was grown in RPMI+10% fetal calf serum. 10^7 exponentially growing cells were cotransfected with 50 μg of “ptet-splice p53 wt” and 10 μg of “HSP-tetp-TET-ON” by electroporation using a BRL cell-Porator at 1180 μF and 240 V in 0.8 ml RPMI+6 mM glucose. Transfected cells were plated out at 25% confluence for 36 hours and then half of them were heat-shocked at 45° C. for twenty minutes. Six hours after heat shock, cells were treated with different doses of doxycycline. […] The amount of protein expressed in each cell is proportional to the intensity of staining which was expressed as I=1/T, where T is a measure of the transmitted light/unit area.

For data set [2] the following is noted: cited from earlier work.

A value given as a limit tells only on which side of the number the result lay.

Take `C[C@H]1c2cccc(O)c2C(=O)C2=C(O)[C@]3(O)C(=O)C(C(N)=O)=C(O)[C@@H](N(C)C)[C@@H]3[C@@H](O)[C@@H]21` [doxycycline]: the “amplification of p53” value in data set [1] is reported as “more than 12 fold”. Further, the in vivo half-life in data set [2] (in vivo) was 18 h.

As to `CN(C)[C@@H]1C(O)=C(C(N)=O)C(=O)[C@@]2(O)C(O)=C3C(=O)c4c(O)cccc4[C@@](C)(O)[C@H]3[C@H](O)[C@@H]12` [oxytetracycline], in data set [2] (end of 24 hours), the “level at the end of 24 hours” value was < 25 % of input. Moreover, the “time at which peak plasma concentration is reached” value in data set [2] (humans, single oral dose) was 2 to 4 h. The “fraction removed via the kidney” value in data set [2] (humans) is listed as 10-35%. Further, in data set [2] (in vivo), the “fraction never absorbed and excreted in the active form” value was 10-30%; the in vivo half-life was 9 h.

These data come from patent US6759236B1, “Methods to enhance and confine expression of genes” (Research Development Foundation, priority 1998, dated 2004).
